Values of other authors in US12508224B2, “Treating microvascular dysfunction” (EndoProtech, Inc., priority 2018, dated 2025).

System: glycocalyx

In the case of CCCCCCCCCCCCC/C=C/[C@@H](O)[C@@H](N)COP(=O)(O)O [SP, sphingosine-1-phosphate], the “levels needed in plasma to protect the stability of the glycocalyx” value is listed as 100 to 300 nM.
